Results reported in patent US10072026B2, “Crystalline form of 3-((1R,3s,5S)-3-((7-((5-methyl-1H-pyrazol-3-yl)amino)-1,6-naphthyridin-5-yl)amino)-8-azabicyclo[3.2.1]octan-8-yl)propanenitrile” (priority 2015, dated 2018).
Like-named read-outs stand apart in the source and are kept apart here.

What was measured:
in vivo = assay: in vivo; parameters: species or system Sprague Dawley rats; conditions: Sprague Dawley, rat, po, 5 mg/kg
Procedure: Assay 5: Colon Pharmacokinetics in Rats
Test compounds were individually formulated in 0.5% methyl-cellulose in water and dosed via oral gavage at 5 mg/kg to Sprague Dawley rats. At various time points (typically 1, 2, 4, 6, 24 hr) post dosing, blood samples were removed via cardiac puncture and intact colons were excised from the rats. Blood samples were centrifuged at 1500×g for 15 min to collect plasma. Colons were washed with ice cold phosphate buffered saline (PBS), weighed, and homogenized at a dilution of 1:10 in PBS. Plasma and colon levels of test compound were determined by LC-MS analysis against analytical standards constructed into a standard curve in the test matrix. A colon to plasma ratio was determined as the ratio of the colon AUC to the plasma AUC in μg hr/g.

[1] = Pharmacokinetics in plasma and the GI tract in rats; assay type: in vivo, Sprague Dawley rats; conditions: rat, 5 mg/kg oral, all time points (0.5-24 hr); below limit of quantitation
Procedure: Assay 6: Pharmacokinetics in Plasma and the GI Tract in Rats and Dogs A test compound was dosed to male Sprague Dawley rats (n=3) as described in Assay 5. […] At all time points, the plasma concentration was below the limit of quantitation of 0.001 μg/mL.

[2] = Pharmacokinetics in plasma and the GI tract in dogs; assay type: in vivo; conditions: male, beagle, GI tissue (duodenum, ileum, cecum, colon) and plasma, dog, 5 mg/kg oral
Procedure: Assay 6: Pharmacokinetics in Plasma and the GI Tract in Rats and Dogs
An analogous experiment was performed in dogs. Male beagle dogs (n=2) were dosed via oral gavage with 5 mg/kg of test compound, formulated as above. In dog number 1, plasma samples were taken at 0.25, 1, 2, 4, 6, and 24 hr post dosing. In dog number 2, plasma samples were taken to 6 hr. In both dog number 1 (at 24 hr) and dog number 2 (at 6 hr) the GI tract was removed and segmented as follows: duodenum, ileum, cecum and the colon segmented into equal thirds (proximal, middle, and distal colon). For each of the GI segments, an approximately 2 cm piece was excised in the middle of the segment. Each was washed thoroughly in ice cold PBS buffer and then homogenized in 5 volumes of PBS buffer and analyzed as above. […] The GI tissue to plasma ratio ranged from about 7 to about 30 for collections conducted at 24 hours post oral dose.

[3] = test system: oxazolone-induced colitis; assay: Mouse model of oxazolone-induced colitis; assay type: in vivo, BALB/C mice
Method in brief: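 Adult BALB/c mice skin-sensitized with 4% oxazolone on day 1, then challenged intrarectally 7 days later with 50 μL 1% oxazolone. Compound dosed PO, BID or TID, starting one day before challenge. Blinded Disease Activity Index (stool consistency, bleeding, weight loss, averaged) scored 2 days post-challenge.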

mouse splenic NK cells = assay: Immunosuppression effects in mouse splenic natural killer (NK) cells; assay type: in vivo, Balb/C mice; conditions: mouse spleen, PO BID three days
Procedure: Adult male Balb/C mice (12-14 weeks of age) from Harlan were used for the study. […] Spleens were harvested 1 or 2 h post last dose and crushed immediately for cell subtype staining. Prior to fixation, fluorophore-labelled antibodies for CD19 (FITC; B cells), CD3e (PE; pan T cells) and DX5 (APC; NK cells) were incubated with splenocyte samples from each animal to allow for simultaneous, multiple subtype % analysis on the flow cytometer. The number of total spleen cells for each animal was measured by Scepter™ 2.0 Handheld Automated Cell Counter. The absolute number of lymphocyte subtype population (e.g., splenic B, T and NK cells) was calculated from the percentage of each subtype times total spleen cells for each animal. A one way ANOVA, with Dunnett's post hoc test, was used to compare the splenic lymphocytes number of the vehicle and test compound groups. The a level was set at p<0.05. Data were presented as the mean±SEM for each group.

[4] = First in human study of safety, tolerability and pharmacokinetics in healthy subjects; assay type: in vivo; conditions: for Cmax at 14 days / Cmax: human, plasma, oral, healthy subjects; for Cmax at 14 days: 14 days administration up to 300 mg; for Cmax: single dose up to 1000 mg
Procedure: Assay 9: First in Human Study to Evaluate the Safety, Tolerability and Pharmacokinetics in Healthy Subjects
The compound of Example 1 was evaluated in a double-blinded, randomized, placebo-controlled, single ascending dose (SAD) and multiple ascending dose (MAD) study of safety, tolerability, and pharmacokinetics in healthy subjects. Pharmacokinetic samples were collected up to 72 hours post the final dose in both the SAD study (after the first dose) and MAD study (after 14 days of once-daily dosing). The SAD study enrolled 5 cohorts and the MAD study enrolled 4 cohorts totaling 72 subjects, of which 71 completed the dosing period.
Plasma pharmacokinetic (PK) parameters were determined by non-compartmental analysis using WinNonLin Version 6.4.0 (Pharsight, St Louis, Mo.). The plasma PK parameter presented here is:
Cmax: maximum concentration in plasma

[5] = test system: IL-4 induced STAT6 phosphorylation in THP-1 human monocytic cells; assay: Cellular JAK potency assay, THP-1; conditions: Homo sapiens, THP-1, read-out: THP-1 IL4 pIC50 (converted)
[6] = test system: IL-13 induced STAT6 phosphorylation in BEAS-2B human lung epithelial cells; assay: AlphaScreen cellular JAK potency assay, BEAS-2B; conditions: Homo sapiens, BEAS-2B, read-out: BEAS2B pIC50 (converted)
[7] = read-out: average Cmax plasma concentration
[8] = read-out: individual subject Cmax

Q: Which Kp (in vivo) does the source give for `Cc1cc(Nc2cc3ncccc3c(N[C@@H]3C[C@H]4CC[C@@H](C3)N4CCC#N)n2)n[nH]1` [Example 1, 3-((1R,3s,5S)-3-((7-((5-methyl-1H-pyrazol-3-yl)amino)-1,6-naphthyridin-5-yl)amino)-8-azabicyclo[3.2.1]octan-8-yl)propanenitrile] here?
A: > 450

Q: What about the plasma concentration [1] of the same compound?
A: < 1 ng/mL

Q: And the Kp at 6 hours ([2]; 6 hours post dose, read-out: ratio of concentration in GI tissue to plasma)?
A: 9 to 165

Q: What about the Kp at 24 hours ([2]; 24 hours post dose, read-out: GI tissue to plasma ratio) of the same compound?
A: 7 to 30

Q: And the “minimal dose that caused a significant anti-colitic effect” value ([3]; mouse oxazolone-induced colitis)?
A: 1 mg/kg

Q: What about the “decrease in DAI score as compared with vehicle treated animals” value ([3]; mouse, PO, 1, 3, and/or 10 mg/kg BID) of the same compound?
A: statistically significant decrease

Q: What about the “treatment effect on B and T cell populations” value (mouse splenic NK cells) of the same compound?
A: No treatment effect

Q: And the “drug concentration in stool samples” value ([4]; healthy human subjects)?
A: high drug concentration

Q: And the Cmax at 14 days [4, 7]?
A: < 15 ng/mL

Q: What about the Cmax at 14 days [4, 8] of the same compound?
A: ≤ 30 ng/mL

Q: What about the Cmax [4, 7] of the same compound?
A: < 50 ng/mL

Q: And the Cmax [4, 8]?
A: ≤ 100 ng/mL

Q: What about the IC50 [5] of the same compound?
A: 31.6 to 200 nM

Q: And the IC50 [6]?
A: 31.6 to 200 nM
